Data: ChEMBL document CHEMBL5380794, “Discovery of a Potent and Selective STAT5 PROTAC Degrader with Strong Antitumor Activity In Vivo in Acute Myeloid Leukemia” (J Med Chem, 2023)
Calls of active or inactive are those of the source. The calls are words filed in the database; no cut-off is given here.

Key:
[1] = In vivo induction of degradation of STAT5 in human MV4-11 cells xenografted in SCID mouse assessed as reduction in STAT5 levels at 150 mg/kg, ip measured at 24 hrs by immunoblotting analysis; format: functional; design: scale not given: the % may be the effect or the level left
[2] = target: T1, STAT5A/STAT5B (Homo sapiens, UniProt P42229+P51692); assay: Induction of STAT5A/5B degradation in human OCI-AML2 cells measured for 18 hrs by immunoblotting analysis; format: cell-based
T1 sequence (P42229 whole entry): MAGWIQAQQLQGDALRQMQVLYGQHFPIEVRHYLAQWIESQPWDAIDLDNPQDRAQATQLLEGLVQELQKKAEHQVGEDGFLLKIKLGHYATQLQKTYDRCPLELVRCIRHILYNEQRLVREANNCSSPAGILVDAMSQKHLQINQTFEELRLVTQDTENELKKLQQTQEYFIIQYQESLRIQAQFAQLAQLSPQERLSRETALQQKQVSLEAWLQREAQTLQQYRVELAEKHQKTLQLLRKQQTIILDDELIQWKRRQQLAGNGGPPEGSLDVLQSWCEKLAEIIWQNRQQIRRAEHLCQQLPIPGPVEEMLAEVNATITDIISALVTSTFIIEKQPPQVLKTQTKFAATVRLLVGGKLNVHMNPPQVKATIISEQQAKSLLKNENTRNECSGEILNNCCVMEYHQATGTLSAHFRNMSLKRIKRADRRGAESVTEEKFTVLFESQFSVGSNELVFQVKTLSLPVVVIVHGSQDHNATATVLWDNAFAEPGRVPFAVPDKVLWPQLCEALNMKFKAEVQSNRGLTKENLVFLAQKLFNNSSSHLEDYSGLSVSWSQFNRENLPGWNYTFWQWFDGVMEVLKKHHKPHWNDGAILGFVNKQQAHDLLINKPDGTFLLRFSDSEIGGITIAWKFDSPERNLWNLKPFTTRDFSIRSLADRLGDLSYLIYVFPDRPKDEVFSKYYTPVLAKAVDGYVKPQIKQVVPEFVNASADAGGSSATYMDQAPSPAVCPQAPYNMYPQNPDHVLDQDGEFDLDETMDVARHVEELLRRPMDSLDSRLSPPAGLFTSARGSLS
T1 sequence (P51692 whole entry): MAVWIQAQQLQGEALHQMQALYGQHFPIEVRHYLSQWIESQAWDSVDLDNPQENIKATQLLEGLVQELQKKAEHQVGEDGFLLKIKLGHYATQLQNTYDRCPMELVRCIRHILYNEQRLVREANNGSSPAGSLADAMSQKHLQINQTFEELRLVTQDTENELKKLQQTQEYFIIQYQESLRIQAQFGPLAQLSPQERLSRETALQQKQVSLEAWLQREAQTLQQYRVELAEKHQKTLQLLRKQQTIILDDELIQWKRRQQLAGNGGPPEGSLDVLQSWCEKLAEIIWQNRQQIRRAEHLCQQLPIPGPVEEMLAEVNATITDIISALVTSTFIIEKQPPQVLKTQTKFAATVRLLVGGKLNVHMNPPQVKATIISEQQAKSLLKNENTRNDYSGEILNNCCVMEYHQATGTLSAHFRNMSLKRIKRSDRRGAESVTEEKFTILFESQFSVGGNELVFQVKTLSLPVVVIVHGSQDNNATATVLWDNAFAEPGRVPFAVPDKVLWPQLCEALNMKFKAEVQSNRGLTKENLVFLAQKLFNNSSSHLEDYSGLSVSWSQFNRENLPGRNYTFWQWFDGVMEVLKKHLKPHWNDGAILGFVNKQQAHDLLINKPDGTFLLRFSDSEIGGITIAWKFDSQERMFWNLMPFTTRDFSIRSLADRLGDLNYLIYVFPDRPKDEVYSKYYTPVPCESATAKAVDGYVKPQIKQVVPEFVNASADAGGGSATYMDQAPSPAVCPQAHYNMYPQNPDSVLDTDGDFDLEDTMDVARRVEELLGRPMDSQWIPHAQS

[3] = system: Mus musculus; assay: In vivo induction of degradation of STAT5 in human MV4-11 cells xenografted in SCID mouse assessed as reduction in STAT5 levels at 150 mg/kg, ip measured at 1 hrs by immunoblotting analysis; format: functional, organism-based
[4] = target: T1, STAT5A/STAT5B; assay: Induction of STAT5A/5B degradation in human MV4-11 cells measured for 6 hrs by immunoblotting analysis; format: cell-based
[5] = target: T2, Signal transducer and activator of transcription 5A (Homo sapiens, UniProt P42229); assay: Induction of STAT5 degradation in human MV4-11 cells assessed as reduction in phosphorylated STAT5 level measured for 6 hrs by immunoblotting analysis; format: cell-based
T2 sequence (P42229 whole entry): T1 sequence (P42229 whole entry)

[6] = system: HL-60; assay: Antiproliferative activity against human HL-60 cells assessed as cell growth inhibition measured for 4 days by celltiter-glo assay; conditions: HL-60, 96 h
[7] = target: T1, STAT5A/STAT5B; assay: Induction of STAT5A/5B degradation in human RS4-11 cells measured for 18 hrs by immunoblotting analysis; format: cell-based
[8] = system: SKNO-1; assay: Effect on STAT3 level in human SKNO-1 cells upto 5 uM measured for 18 hrs by Western blot analysis; format: functional, cell-based
[9] = system: MV4-11; assay: Antitumor activity against human MV4-11 cells xenografted in SCID mouse assessed as tumor growth inhibition at 200 mg/kg, ip administered 5 days a week for 3 weeks; format: functional; conditions: MV4-11, 504 h, read-out: TGI
[10] = Antiproliferative activity against human BDCM cells assessed as cell growth inhibition measured for 4 days by celltiter-glo assay; conditions: 96 h
[11] = system: Mus musculus; assay: In vivo induction of degradation of STAT5 in human MV4-11 cells xenografted in SCID mouse assessed as reduction in STAT5 phosphorylation at Y694 residue at 150 mg/kg, ip measured at 1 hrs by immunoblotting analysis; format: functional, organism-based
[12] = system: MOLM-13; assay: Antiproliferative activity against human MOLM-13 cells assessed as cell growth inhibition measured for 4 days by celltiter-glo assay; conditions: MOLM-13, 96 h
[13] = system: SKNO-1; assay: Effect on STAT6 level in human SKNO-1 cells upto 5 uM measured for 18 hrs by Western blot analysis; format: functional, cell-based
[14] = Antiproliferative activity against human Kasumi-3 cells assessed as maximal cell growth inhibition measured for 4 days by celltiter-glo assay relative to control; format: functional; conditions: time 4 day
[15] = system: MV4-11; assay: Effect on STAT3 level in human MV4-11 cells upto 5 uM measured for 18 hrs by Western blot analysis; format: functional, cell-based
[16] = system: MV4-11; assay: Antiproliferative activity against human MV4-11 cells assessed as maximal cell growth inhibition measured for 4 days by celltiter-glo assay relative to control; format: functional; conditions: time 4 day
[17] = system: HL-60; assay: Antiproliferative activity against human HL-60 cells assessed as maximal cell growth inhibition measured for 4 days by celltiter-glo assay relative to control; format: functional; conditions: time 4 day
[18] = Antiproliferative activity against human BDCM cells assessed as maximal cell growth inhibition measured for 4 days by celltiter-glo assay relative to control; format: functional; conditions: time 4 day
[19] = In vivo induction of degradation of STAT5 in human MV4-11 cells xenografted in SCID mouse assessed as reduction in STAT5 phosphorylation at Y694 residue at 150 mg/kg, ip measured at 1 to 24 hrs by immunoblotting analysis; format: functional; design: scale not given: the % may be the effect or the level left; conditions: time 1-24 hrs
[20] = target: T2, Signal transducer and activator of transcription 5A; assay: Induction of STAT5 degradation in human Kasumi-3 cells assessed as reduction in phosphorylated STAT5 level measured for 18 hrs by immunoblotting analysis; format: cell-based

Q: With CN(CCCC#Cc1cccc2c1CN(C1CCC(=O)NC1=O)C2=O)C(=O)CCN(C(=O)[C@@H]1CCCN1C(=O)[C@@H](NC(=O)c1cc2cc(C(F)(F)P(=O)(O)O)ccc2s1)C(C)(C)C)c1ccc(-c2nccs2)cc1 (stereo not given in full) as the molecule, how does the Activity [1] read?
A: >70%

Q: What about the DC50 [2] of the same molecule?
A: 0.28 µM

Q: What about the Activity [3] of the same molecule?
A: Active

Q: What about the DC50 [4] of the same molecule?
A: 0.05 µM

Q: What about the DC50 [5] of the same molecule?
A: 60 nM

Q: And the IC50 [6]?
A: > 15 µM

Q: And the DC50 [7]?
A: 0.07 µM

Q: What about the Activity [8] of the same molecule?
A: inactive

Q: And the inhibition in vivo at 200 mg/kg [9]?
A: 80%

Q: What about the IC50 [10] of the same molecule?
A: > 15 µM

Q: What about the Activity [11] of the same molecule?
A: Active

Q: What about the IC50 [12] of the same molecule?
A: > 15 µM

Q: And the Activity [13]?
A: inactive

Q: What about the Imax [14] of the same molecule?
A: 72%

Q: What about the Activity [15] of the same molecule?
A: inactive

Q: What about the Imax [16] of the same molecule?
A: 65%

Q: And the Imax [17]?
A: <5%

Q: And the Imax [18]?
A: <5%

Q: And the Activity [19]?
A: >95%

Q: And the DC50 [20]?
A: 250 nM
